These are literature values, as cited in US20230201308A1, “TREATMENT OF CORONAVIRUS INFECTION WITH […]” (Eiger Biopharmaceuticals, Inc., priority 2020, published 2023).

In this data set the test system is SARS-CoV-2. The following applies: BLAZE trial; placebo group 15%; cited from earlier work.

Consider bamlanivimab, for which the “hospitalization in the treatment group” value was “placebo group to 4% in the treatment group. Despite the more potent antiviral effect”.
